According to patent publication US11466016B2, “Pharmaceutical compounds” (priority 2018, dated 2022):
Where a name gives a salt, the structure may show the parent alone. Read-outs that look alike come from different tables or passages of the source.

Target: SHP2 (Homo sapiens (Human), UniProt Q06124)
Assay: SHP2 Biochemical Assay (DiFMUP conversion, pIRS1 activating peptide)
[1] = DiFMUP substrate, 0.25 μM pIRS1 peptide, 30 min pre-incubation, average where more than one data point, read-out: SHP2 (IC50)

SHP2, sequence (Q06124 whole entry): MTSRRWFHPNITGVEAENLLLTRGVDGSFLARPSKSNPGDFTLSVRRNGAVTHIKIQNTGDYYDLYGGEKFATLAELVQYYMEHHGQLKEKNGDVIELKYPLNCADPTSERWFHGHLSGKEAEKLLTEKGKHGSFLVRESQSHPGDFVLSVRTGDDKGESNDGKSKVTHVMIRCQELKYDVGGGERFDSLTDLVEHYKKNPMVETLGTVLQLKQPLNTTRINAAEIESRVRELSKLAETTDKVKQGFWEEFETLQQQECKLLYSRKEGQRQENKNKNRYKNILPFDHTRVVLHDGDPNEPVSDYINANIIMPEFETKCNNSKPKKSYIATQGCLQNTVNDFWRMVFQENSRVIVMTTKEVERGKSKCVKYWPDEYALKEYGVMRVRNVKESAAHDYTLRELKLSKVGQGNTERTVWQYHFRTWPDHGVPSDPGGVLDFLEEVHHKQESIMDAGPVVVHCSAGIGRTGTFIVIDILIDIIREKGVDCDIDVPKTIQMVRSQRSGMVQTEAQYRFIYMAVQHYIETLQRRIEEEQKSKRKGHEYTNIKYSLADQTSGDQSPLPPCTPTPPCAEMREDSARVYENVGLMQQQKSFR

| Compound | IC50 [1] [nM] | other results |
| --- | --- | --- |
| COc1cnc2ccc(-c3n[nH]c4nc(N5[C@@H]6CC[C@H]5C[C@@H](N)C6)c(CO)nc34)c(Cl)c2n1 [Example 113, {6-[endo-3-amino-8-azabicyclo[3.2.1]octan-8-yl]-3-(5-chloro-3-methoxyquinoxalin-6-yl)-1H-pyrazolo[3,4-b]pyrazin-5-yl}methanol] | 7.4 | – |
| N[C@H]1C[C@@H]2CC[C@H]([C@H]1F)N2c1nc2[nH]nc(-c3ccc4ncsc4c3Cl)c2nc1CO [Example 114, {6-[(1R,2S,3S,5S)-3-amino-2-fluoro-8-azabicyclo[3.2.1]octan-8-yl]-3-(7-chloro-1,3-benzothiazol-6-yl)-1H-pyrazolo[3,4-b]pyrazin-5-yl}methanol] | 3 | – |
| Cn1nc2ccc(-c3n[nH]c4nc(N5[C@@H]6CC[C@H]5C[C@@H](O)C6)c(CO)nc34)c(Cl)c2c1Cl [Example 115, endo-8-[3-(3,4-dichloro-2-methyl-2H-indazol-5-yl)-5-(hydroxymethyl)-1H-pyrazolo[3,4-b]pyrazin-6-yl]-8-azabicyclo[3.2.1]octan-3-ol] | – | SHP2 (percent at stated concentration): 50%@0.30 uM |
| Cn1nc2ccc(-c3n[nH]c4nc(N5[C@@H]6CC[C@H]5C[C@@](C)(N)C6)c(CO)nc34)c(Cl)c2c1Cl [Example 116, {6-[endo-3-amino-3-methyl-8-azabicyclo[3.2.1]octan-8-yl]-3-(3,4-dichloro-2-methyl-2H-indazol-5-yl)-1H-pyrazolo[3,4-b]pyrazin-5-yl}methanol] | 7.5 | – |
| CN(C)c1cnc2ccc(-c3n[nH]c4nc(N5[C@H]6CC[C@@H]5[C@@H](F)[C@@H](N)C6)c(CO)nc34)c(Cl)c2n1 [Example 118, {6-[(1R,2S,3S,5S)-3-amino-2-fluoro-8-azabicyclo[3.2.1]octan-8-yl]-3-[5-chloro-3-(dimethylamino)quinoxalin-6-yl]-1H-pyrazolo[3,4-b]pyrazin-5-yl}methanol] | 5.3 | – |
| COc1cnc2ccc(-c3n[nH]c4nc(N5[C@@H]6CC[C@H]5CNC6)c(C)nc34)c(Cl)c2n1 [Example 119, 8-Chloro-7-(6-{3,8-diazabicyclo[3.2.1]octan-8-yl}-5-methyl-1H-pyrazolo[3,4-b]pyrazin-3-yl)-2-methoxyquinoxaline] | 14 | – |
| COc1cnc2ccc(-c3n[nH]c4nc(N5CCC(C)(N)CC5)c(C)nc34)c(Cl)c2n1 [Example 120, 1-[3-(5-chloro-3-methoxyquinoxalin-6-yl)-5-methyl-1H-pyrazolo[3,4-b]pyrazin-6-yl]-4-methylpiperidin-4-amine] | 25 | – |
| COc1cnc2ccc(-c3n[nH]c4nc(N5[C@@H]6CC[C@H]5[C@@H](F)[C@@H](N)C6)c(C)nc34)c(Cl)c2n1 [Example 121, (1S,2S,3S,5R)-8-[3-(5-chloro-3-methoxyquinoxalin-6-yl)-5-methyl-1H-pyrazolo[3,4-b]pyrazin-6-yl]-2-fluoro-8-azabicyclo[3.2.1]octan-3-amine] | – | IC50: 14 nM |
| Cn1nc2ccc(-c3c[nH]c4nc(N5[C@H]6CC[C@@H]5[C@@H](F)[C@@H](N)C6)c(CO)nc34)c(Cl)c2c1Cl [Example 122, {3-[(1R,2S,3S,5S)-3-amino-2-fluoro-8-azabicyclo[3.2.1]octan-8-yl]-7-(3,4-dichloro-2-methyl-2H-indazol-5-yl)-5H-pyrrolo[2,3-b]pyrazin-2-yl}methanol] | 5.2 | – |
| Cc1nc2c(-c3ccc4nn(C)c(C#N)c4c3Cl)n[nH]c2nc1N1[C@H]2CC[C@@H]1[C@@H](F)[C@@H](N)C2 [Example 124, 5-{6-[(1R,2S,3S,5S)-3-amino-2-fluoro-8-azabicyclo[3.2.1]octan-8-yl]-5-methyl-1H-pyrazolo[3,4-b]pyrazin-3-yl}-4-chloro-2-methyl-2H-indazole-3-carbonitrile] | 8.1 | – |
| Cn1nc2ccc(-c3n[nH]c4nc(N5[C@@H]6CCC[C@H]5CNC6)c(CO)nc34)c(Cl)c2c1Cl [Example 125] | 7.1 | – |
| CCn1nc2ccc(-c3n[nH]c4nc(N5[C@H]6CC[C@@H]5[C@@H](F)[C@@H](N)C6)c(CO)nc34)c(Cl)c2c1C#N [Example 126, 5-{6-[(1R,2S,3S,5S)-3-amino-2-fluoro-8-azabicyclo[3.2.1]octan-8-yl]-5-(hydroxymethyl)-1H-pyrazolo[3,4-b]pyrazin-3-yl}-4-chloro-2-ethyl-2H-indazole-3-carbonitrile] | 9.7 | – |
| CCn1nc2ccc(-c3n[nH]c4nc(N5[C@H]6CC[C@@H]5[C@@H](F)[C@@H](N)C6)c(C)nc34)c(Cl)c2c1C#N [Example 127, 5-{6-[(1R,2S,3S,5S)-3-amino-2-fluoro-8-azabicyclo[3.2.1]octan-8-yl]-5-methyl-1H-pyrazolo[3,4-b]pyrazin-3-yl}-4-chloro-2-ethyl-2H-indazole-3-carbonitrile, hydrochloride salt] | 14 | – |
| Cc1nc2ccc(-c3n[nH]c4nc(N5[C@@H]6CC[C@H]5C[C@@H](N)C6)c(CO)nc34)c(Cl)c2s1 [Example 128, {6-[endo-3-amino-8-azabicyclo[3.2.1]octan-8-yl]-3-(7-chloro-2-methyl-1,3-benzothiazol-6-yl)-1H-pyrazolo[3,4-b]pyrazin-5-yl}methanol] | – | IC50: 7.3 nM |
| Cn1nc2ccc(-c3n[nH]c4nc(N5[C@H]6CC[C@@H]5[C@@H](F)[C@@H](N)C6)c(CO)nc34)c(Cl)c2c1C#N [Example 129, 5-{6-[(1R,2S,3S,5S)-3-amino-2-fluoro-8-azabicyclo[3.2.1]octan-8-yl]-5-(hydroxymethyl)-1H-pyrazolo[3,4-b]pyrazin-3-yl}-4-chloro-2-methyl-2H-indazole-3-carbonitrile] | 5 | – |
| CN(C)c1cnc2ccc(-c3n[nH]c4nc(N5[C@@H]6CC[C@H]5[C@@H](F)[C@@H](N)C6)c(CO)nc34)c(Cl)c2n1 [Example 130, {6-[(1S,2S,3S,5R)-3-amino-2-fluoro-8-azabicyclo[3.2.1]octan-8-yl]-3-[5-chloro-3-(dimethylamino)quinoxalin-6-yl]-1H-pyrazolo[3,4-b]pyrazin-5-yl}methanol] | – | IC50: 9.5 nM |
| CN(C)c1cnc2ccc(-c3n[nH]c4nc(N5[C@@H]6CC[C@H]5C[C@@](C)(N)C6)c(CO)nc34)c(Cl)c2n1 [Example 131, {6-[endo-3-amino-3-methyl-8-azabicyclo[3.2.1]octan-8-yl]-3-[5-chloro-3-(dimethylamino)quinoxalin-6-yl]-1H-pyrazolo[3,4-b]pyrazin-5-yl}methanol] | – | IC50: 8.8 nM |
| Cc1nc2c(-c3ccc4nc(CO)sc4c3Cl)n[nH]c2nc1N1[C@H]2CC[C@@H]1[C@@H](F)[C@@H](N)C2 [Example 132, (6-{6-[(1R,2S,3S,5S)-3-amino-2-fluoro-8-azabicyclo[3.2.1]octan-8-yl]-5-methyl-1H-pyrazolo[3,4-b]pyrazin-3-yl}-7-chloro-1,3-benzothiazol-2-yl)methanol, hydrochloride] | 11 | – |
| CN(C)c1cnc2ccc(-c3n[nH]c4nc(N5[C@@H]6CC[C@H]5C[C@@H](N)C6)c(CO)nc34)c(Cl)c2n1 [Example 133, {6-[endo-3-amino-8-azabicyclo[3.2.1]octan-8-yl]-3-[5-chloro-3-(dimethylamino)quinoxalin-6-yl]-1H-pyrazolo[3,4-b]pyrazin-5-yl}methanol] | 6 | – |
| COc1cnc2ccc(-c3n[nH]c4nc(N5[C@@H]6CC[C@H]5C[C@@](C)(N)C6)c(CO)nc34)c(Cl)c2n1 [Example 134, {6-[endo-3-amino-3-methyl-8-azabicyclo[3.2.1]octan-8-yl]-3-(5-chloro-3-methoxyquinoxalin-6-yl)-1H-pyrazolo[3,4-b]pyrazin-5-yl}methanol] | 10 | – |
| COc1cnc2ccc(-c3n[nH]c4nc(N5[C@@H]6CC[C@H]5C[C@@H](N)C6)c(C)nc34)c(Cl)c2n1 [Example 135, endo-8-[3-(5-chloro-3-methoxyquinoxalin-6-yl)-5-methyl-1H-pyrazolo[3,4-b]pyrazin-6-yl]-8-azabicyclo[3.2.1]octan-3-amine] | 16 | – |
| Cc1nc2c(-c3ccc4ncc(N(C)C)nc4c3Cl)n[nH]c2nc1N1[C@@H]2CC[C@H]1C[C@@H](N)C2 [Example 136, 7-{6-[endo-3-amino-8-azabicyclo[3.2.1]octan-8-yl]-5-methyl-1H-pyrazolo[3,4-b]pyrazin-3-yl}-8-chloro-N,N-dimethylquinoxalin-2-amine] | 9 | – |
| Cc1nc2c(-c3ccc4ncc(N(C)C)nc4c3Cl)n[nH]c2nc1N1C2CCC1CNC2 [Example 137, 8-Chloro-7-(6-{3,8-diazabicyclo[3.2.1]octan-8-yl}-5-methyl-1H-pyrazolo[3,4-b]pyrazin-3-yl)-N,N-dimethylquinoxalin-2-amine] | 21 | – |
| CCOc1cnc2ccc(-c3n[nH]c4nc(N5[C@H]6CC[C@@H]5[C@@H](F)[C@@H](N)C6)c(CO)nc34)c(Cl)c2n1 [Example 138, {6-[(1R,2S,3S,5S)-3-amino-2-fluoro-8-azabicyclo[3.2.1]octan-8-yl]-3-(5-chloro-3-ethoxyquinoxalin-6-yl)-1H-pyrazolo[3,4-b]pyrazin-5-yl}methanol] | 13 | – |
| CCOc1cnc2ccc(-c3n[nH]c4nc(N5[C@H]6CC[C@@H]5[C@@H](F)[C@@H](N)C6)c(C)nc34)c(Cl)c2n1 [Example 139, (1R,2S,3S,5S)-8-[3-(5-chloro-3-ethoxyquinoxalin-6-yl)-5-methyl-1H-pyrazolo[3,4-b]pyrazin-6-yl]-2-fluoro-8-azabicyclo[3.2.1]octan-3-amine] | 22 | – |
| Cc1nc2ccc(-c3n[nH]c4nc(N5[C@@H]6CC[C@H]5[C@@H](F)[C@@H](N)C6)c(CO)nc34)c(Cl)c2s1 [Example 140, {6-[(1S,2S,3S,5R)-3-amino-2-fluoro-8-azabicyclo[3.2.1]octan-8-yl]-3-(7-chloro-2-methyl-1,3-benzothiazol-6-yl)-1H-pyrazolo[3,4-b]pyrazin-5-yl}methanol] | 7.7 | – |
| Cc1c(-c2n[nH]c3nc(N4[C@@H]5CC[C@H]4[C@@H](F)[C@@H](N)C5)c(CO)nc23)ccc2nn(C)c(Cl)c12 [Example 141, {6-[(1S,2S,3S,5R)-3-amino-2-fluoro-8-azabicyclo[3.2.1]octan-8-yl]-3-(3-chloro-2,4-dimethyl-2H-indazol-5-yl)-1H-pyrazolo[3,4-b]pyrazin-5-yl}methanol] | 13 | – |
